In ChEMBL document CHEMBL1139992, “Synthesis and biological activity of enantiomeric pairs of 5-vinylthiolactomycin congeners” (Bioorg Med Chem Lett, 2007):
In brackets after ≈: the same amount, converted by molar mass.

Tested on: Bacteroides fragilis
Test: Antimicrobial activity against Bacteroides fragilis GAI5560
Assay type: functional
With `CCC/C=C/[C@]1(C)SC(=O)C=C1O` the MIC was > 128 µg/mL.
In the case of `C=C[C@]1(C)SC(=O)C(C)=C1O`, the MIC was > 128 µg/mL.
For `C=C[C@]1(C)SC(=O)C=C1O`, the MIC was > 128 µg/mL.
For `C/C=C/[C@@]1(C)SC(=O)C(C)=C1O`, the MIC was > 128 µg/mL.
In the case of `C/C=C/[C@@]1(C)SC(=O)C=C1O`, the MIC was > 128 µg/mL.
With `CC/C=C/[C@@]1(C)SC(=O)C(C)=C1O` the MIC was > 128 µg/mL.
With `CC/C=C/[C@]1(C)SC(=O)C(C)=C1O` the MIC was > 128 µg/mL.
For `CC/C=C/[C@]1(C)SC(=O)C=C1O`, the MIC was > 128 µg/mL.
With `CCC/C=C/[C@]1(C)SC(=O)C(C)=C1O` the MIC was > 128 µg/mL.
For `CCC/C=C/[C@@]1(C)SC(=O)C=C1O`, the MIC was > 128 µg/mL.
With `CCCC/C=C/[C@]1(C)SC(=O)C(C)=C1O` the MIC was > 128 µg/mL.
With `CCCC/C=C/[C@@]1(C)SC(=O)C=C1O` the MIC was > 128 µg/mL.
With `CCCCCC/C=C/[C@@]1(C)SC(=O)C(C)=C1O` the MIC was > 128 µg/mL.
With `CCCCCC/C=C/[C@@]1(C)SC(=O)C=C1O` the MIC was > 128 µg/mL.

Tested on: Haemophilus influenzae
Test: Antimicrobial activity against Haemophilus influenzae IID983
Assay type: functional
In the case of `CCC/C=C/[C@]1(C)SC(=O)C=C1O`, the MIC was > 128 µg/mL.
With `C=C[C@]1(C)SC(=O)C(C)=C1O` the MIC was > 128 µg/mL.
In the case of `C=C[C@]1(C)SC(=O)C=C1O`, the MIC was > 128 µg/mL.
With `C/C=C/[C@@]1(C)SC(=O)C(C)=C1O` the MIC was > 128 µg/mL.
In the case of `C/C=C/[C@@]1(C)SC(=O)C=C1O`, the MIC was > 128 µg/mL.
For `CC/C=C/[C@@]1(C)SC(=O)C(C)=C1O`, the MIC was > 128 µg/mL.
With `CC/C=C/[C@]1(C)SC(=O)C(C)=C1O` the MIC was > 128 µg/mL.
In the case of `CC/C=C/[C@]1(C)SC(=O)C=C1O`, the MIC was > 128 µg/mL.
For `CCC/C=C/[C@]1(C)SC(=O)C(C)=C1O`, the MIC was > 128 µg/mL.
For `CCC/C=C/[C@@]1(C)SC(=O)C=C1O`, the MIC was > 128 µg/mL.
With `CCCC/C=C/[C@]1(C)SC(=O)C(C)=C1O` the MIC was > 128 µg/mL.
With `CCCC/C=C/[C@@]1(C)SC(=O)C=C1O` the MIC was > 128 µg/mL.
For `CCCCCC/C=C/[C@@]1(C)SC(=O)C(C)=C1O`, the MIC was > 128 µg/mL.
For `CCCCCC/C=C/[C@@]1(C)SC(=O)C=C1O`, the MIC was > 128 µg/mL.

Tested on: Moraxella catarrhalis
Test: Antimicrobial activity against Moraxella catarrhalis ATCC 25238
Assay type: functional
For `CCC/C=C/[C@]1(C)SC(=O)C=C1O`, the MIC was > 128 µg/mL.
In the case of `C=C[C@]1(C)SC(=O)C(C)=C1O`, the MIC was > 128 µg/mL.
With `C=C[C@]1(C)SC(=O)C=C1O` the MIC was > 128 µg/mL.
For `C/C=C/[C@@]1(C)SC(=O)C(C)=C1O`, the MIC was > 128 µg/mL.
With `C/C=C/[C@@]1(C)SC(=O)C=C1O` the MIC was > 128 µg/mL.
In the case of `CC/C=C/[C@@]1(C)SC(=O)C(C)=C1O`, the MIC was > 128 µg/mL.
In the case of `CC/C=C/[C@]1(C)SC(=O)C(C)=C1O`, the MIC was > 128 µg/mL.
In the case of `CC/C=C/[C@]1(C)SC(=O)C=C1O`, the MIC was > 128 µg/mL.
With `CCC/C=C/[C@]1(C)SC(=O)C(C)=C1O` the MIC was > 128 µg/mL.
In the case of `CCC/C=C/[C@@]1(C)SC(=O)C=C1O`, the MIC was > 128 µg/mL.
In the case of `CCCC/C=C/[C@]1(C)SC(=O)C(C)=C1O`, the MIC was > 128 µg/mL.
In the case of `CCCC/C=C/[C@@]1(C)SC(=O)C=C1O`, the MIC was > 128 µg/mL.
In the case of `CCCCCC/C=C/[C@@]1(C)SC(=O)C(C)=C1O`, the MIC was > 128 µg/mL.
With `CCCCCC/C=C/[C@@]1(C)SC(=O)C=C1O` the MIC was > 128 µg/mL.

Tested on: Staphylococcus aureus
Test: Antimicrobial activity against Staphylococcus aureus
Assay type: functional
For `CCC/C=C/[C@]1(C)SC(=O)C=C1O`, the MIC was > 128 µg/mL.
With `C=C[C@]1(C)SC(=O)C(C)=C1O` the MIC was > 128 µg/mL.
For `C=C[C@]1(C)SC(=O)C=C1O`, the MIC was > 128 µg/mL.
For `C/C=C/[C@@]1(C)SC(=O)C(C)=C1O`, the MIC was > 128 µg/mL.
For `C/C=C/[C@@]1(C)SC(=O)C=C1O`, the MIC was > 128 µg/mL.
With `CC/C=C/[C@@]1(C)SC(=O)C(C)=C1O` the MIC was > 128 µg/mL.
In the case of `CC/C=C/[C@]1(C)SC(=O)C(C)=C1O`, the MIC was > 128 µg/mL.
With `CC/C=C/[C@]1(C)SC(=O)C=C1O` the MIC was > 128 µg/mL.
In the case of `CCC/C=C/[C@]1(C)SC(=O)C(C)=C1O`, the MIC was > 128 µg/mL.
For `CCC/C=C/[C@@]1(C)SC(=O)C=C1O`, the MIC was > 128 µg/mL.
With `CCCC/C=C/[C@]1(C)SC(=O)C(C)=C1O` the MIC was > 128 µg/mL.
With `CCCC/C=C/[C@@]1(C)SC(=O)C=C1O` the MIC was > 128 µg/mL.
In the case of `CCCCCC/C=C/[C@@]1(C)SC(=O)C(C)=C1O`, the MIC was > 128 µg/mL.
With `CCCCCC/C=C/[C@@]1(C)SC(=O)C=C1O` the MIC was > 128 µg/mL.

Tested on: not listed separately
Test: Inhibition of type1 FAS in HepG2 cells
Assay type: cell-based, Homo sapiens
In the case of `CCC/C=C/[C@]1(C)SC(=O)C=C1O`, the IC50 was 8.8 µg/mL (≈ 44.4 µM).
With `C=C[C@]1(C)SC(=O)C(C)=C1O` the IC50 was > 80 µg/mL.
For `C=C[C@]1(C)SC(=O)C=C1O`, the IC50 was 70.1 µg/mL (≈ 449 µM).
`C/C=C/[C@@]1(C)SC(=O)C(C)=C1O` showed an IC50 of 72.3 µg/mL (≈ 392 µM).
Work on `C/C=C/[C@@]1(C)SC(=O)C=C1O` yielded an IC50 of 72.1 µg/mL (≈ 424 µM).
For `CC/C=C/[C@@]1(C)SC(=O)C(C)=C1O`, the IC50 was 57.5 µg/mL (≈ 290 µM).
Compound `CC/C=C/[C@]1(C)SC(=O)C(C)=C1O` has an IC50 of 47 µg/mL (≈ 237 µM).
In the case of `CC/C=C/[C@]1(C)SC(=O)C=C1O`, the IC50 was 18.9 µg/mL (≈ 103 µM).
For `CCC/C=C/[C@]1(C)SC(=O)C(C)=C1O`, the IC50 was 20 µg/mL (≈ 94.2 µM).
`CCC/C=C/[C@@]1(C)SC(=O)C=C1O` showed an IC50 of 41.6 µg/mL (≈ 210 µM).
`CCCC/C=C/[C@]1(C)SC(=O)C(C)=C1O` showed an IC50 of 19.9 µg/mL (≈ 87.9 µM).
In the case of `CCCC/C=C/[C@@]1(C)SC(=O)C=C1O`, the IC50 was 18.6 µg/mL (≈ 87.6 µM).
With `CCCCCC/C=C/[C@@]1(C)SC(=O)C(C)=C1O` the IC50 was 57 µg/mL (≈ 224 µM).
In the case of `CCCCCC/C=C/[C@@]1(C)SC(=O)C=C1O`, the IC50 was 20.1 µg/mL (≈ 83.6 µM).
